Data taken from PubChem BioAssay AID1259333 (Broad Institute, 2017).
The source made the active and inactive calls. The rule behind the calls is not given here; tested in parental BL2 cells.

test: loss of cell viability by ATP content – CellTiter-Glo, cytotoxicity control, dose response (AID 1259333); conditions: cytotoxicity, CellTiter-Glo ATP luminescence; at 10 µM (top of the series);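 note: 0% = vehicle neutral controls and -100% = reference inhibitor positive controls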

SMILES	activity change, negative = cytotoxicity
CS(=O)(=O)c1ccc(C(=O)OCC(=O)NC(=O)C2COc3ccccc3O2)cc1[N+](=O)[O-] (configuration not stated)	25.3% (inactive)
COc1ccc(CN(CCC(c2ccc(F)cc2)C2CCOC(C)(C)C2)C(=O)c2ccco2)cc1 (configuration not stated)	263% (inactive)
COc1ccccc1NC(c1cccnc1)c1ccc2cccnc2c1O (configuration not stated)	123% (inactive)
O=C(NC(=S)/C(=C1\CCCCCN1)[N+](=O)[O-])c1ccccc1	16.4% (inactive)
N#Cc1cccc(-c2ccc(C3[C@@H]4CN(C(=O)Nc5ccc(C(F)(F)F)cc5)C[C@H]3N4)cc2)c1 (some centres not stated)	-11.5% (inactive)
C[C@H](CO)N1C[C@H](C)[C@@H](CN(C)Cc2ccc(Cl)c(Cl)c2)OCCCC[C@H](C)Oc2ccc(NS(=O)(=O)c3cccs3)cc2C1=O	9.11% (inactive)
CCN1C(=O)C(CC(=O)Nc2ccc(F)cc2)N(Cc2ccco2)C1=S (configuration not stated)	18% (inactive)
CC12CC[C@H]3[C@@H](CCC4(O)C[C@H](O)CCC34/C=N/NC(=O)Cc3ccccc3)C1(O)CCC2C1=CC(=O)OC1 (some centres not stated)	25% (inactive)
O=C(c1nnsc1S(=O)(=O)c1ccc(Cl)cc1)N1CCOCC1	40.8% (inactive)
Nc1nc(=O)c2ccccc2s1	19.7% (inactive)
Cc1ccc(P(=O)(CSC(=N)N)c2ccc(C)cc2)cc1	-36.8% (inactive)
COc1ccc2c3c([nH]c2c1)[C@H](CO)N(C(=O)Nc1cccc(F)c1)CC31CCN(S(=O)(=O)c2cccc(C)c2)CC1	35% (inactive)
COc1cccc(OC)c1OCCNCC1COc2ccccc2O1 (configuration not stated)	48.7% (inactive)
c1ccc(-c2nnc(-c3ccccn3)nn2)nc1	22.8% (inactive)
O=C(CNC(=O)c1ccco1)Nc1ccc2c(c1)OCCO2	-6.17% (inactive)
Cc1noc(C)c1S(=O)(=O)Nc1ccc2c(c1)C(=O)N([C@H](C)CO)C[C@@H](C)[C@H](CN(C)C(=O)Nc1cccc3ccccc13)OCCCC[C@@H](C)O2	33.4% (inactive)
COc1cccc(S(=O)(=O)N(C)C[C@H]2OCc3ccccc3-c3c(n(C)c4ccccc34)C(=O)N([C@H](C)CO)C[C@@H]2C)c1	20.3% (inactive)
Cc1ccc(-c2cc(C(=O)N(C)CC(=O)Nc3ccccc3Br)c3ccccc3n2)o1	130% (inactive)

SMILES	activity change, negative = cytotoxicity
COc1cccc(S(=O)(=O)N(C)C[C@@H]2OCc3ccccc3-c3c(n(C)c4ccccc34)C(=O)N([C@H](C)CO)C[C@H]2C)c1	9.22% (inactive)
N#C[C@@H]1[C@@H](c2ccc(C#CC3CCCCC3)cc2)[C@H](CO)N1C(=O)Nc1ccc(F)cc1	28.9% (inactive)
C=C1C(=O)OC2CC1C(O)CC(C)=CCCC(C)=CC(O)CC2C (configuration not stated)	35.5% (inactive)
CC[C@H]1CN2CCc3cc(OC)c(OC)cc3C2C[C@@H]1CC1NCCc2cc(OC)c(OC)cc21 (some centres not stated)	-31.6% (inactive)
COc1cccc(S(=O)(=O)N(C)C[C@H]2OCc3ccccc3-c3c(n(C)c4ccccc34)C(=O)N([C@@H](C)CO)C[C@@H]2C)c1	28.3% (inactive)
O=C1C(Br)=C(c2ccccc2)C(c2ccccc2)=C1c1ccccc1	-18.2% (inactive)
O=C(NCc1ccccn1)C1CCCN(S(=O)(=O)c2ccccc2)C1 (configuration not stated)	44.9% (inactive)
COc1cccc2c1C(=O)c1c(O)c3c(c(O)c1C2=O)C[C@@](O)(C(C)=O)C[C@@H]3O[C@H]1C[C@H](N)[C@H](O)[C@H](C)O1	13.8% (inactive)
O=C(CCN1CCC(c2ccccc2)C1)c1ccc2c(c1)OCCO2 (configuration not stated)	28% (inactive)
Cc1ccc2nc(-c3cc(-c4ccccc4)no3)cn2c1	51.5% (inactive)
CC(=O)OCC(=O)C1(O)CCC2C3CCC4=CC(=O)CCC4(C)C3(Cl)C(O)CC21C (configuration not stated)	25.5% (inactive)
CN(C)c1ccc(NC(=O)c2cnsn2)cc1	17.7% (inactive)
O=C(C1CC1)N1C[C@@H]2N[C@H](C1)C2c1ccc(-c2cccc(F)c2)cc1 (some centres not stated)	-17.6% (inactive)
Cc1ccc(C(CC(=O)NCc2ccco2)c2ccc(OC(C)C)cc2)cc1 (configuration not stated)	-3.48% (inactive)
CC(OC(=O)c1cc(Br)ccc1O)C(=O)Nc1ccc(S(=O)(=O)N2CCCC2)cc1 (configuration not stated)	47% (inactive)
O=C(CNCCO)N1N=C(c2cccs2)CC1c1cccs1 (configuration not stated)	18.9% (inactive)
C[C@@H]1CN([C@@H](C)CO)C(=O)c2ccccc2-c2ccccc2CO[C@@H]1CN(C)C(=O)c1cc(Cl)cc(Cl)c1	38.8% (inactive)

same assay, conditions: cytotoxicity, CellTiter-Glo ATP luminescence; at 11 µM (top of the series)

SMILES	activity change, negative = cytotoxicity
C[C@@H]1CN([C@H](C)CO)C(=O)Cc2cc(NC(=O)Cc3cn(C)c4ccccc34)ccc2O[C@H]1CN(C)Cc1ccc(C(F)(F)F)cc1	6.35% (inactive)
N#C[C@@H]1[C@@H](c2ccccc2-c2ccc(F)cc2)[C@H](CO)N1C(=O)NC1CCCCC1	19.3% (inactive)
